Laboratory results published in patent US11844794B2, “Pharmaceutical compositions” (ADEPTIO PHARMACEUTICALS LIMITED, priority 2017, dated 2023).

What was measured:
VMAT2 = target: T1, VMAT2 (Homo sapiens, UniProt Q05940); assay: % VMAT2 blocking by PET scan in human volunteers; format: in vivo
T1 construct: from tissue; host or cells: living human volunteers (in vivo PET scan)
Source text: Complete blocking of the VMAT2 proteins is considered undesirable as this can lead to unwanted side effects, such as Parkinsonism. […] The levels of VMAT2 blocking can be determined by competitive binding studies using Positron Emission Tomography (PET). By co-administering a radioactive ligand with the compound of interest at various concentrations, the proportion of binding sites occupied can be determined (see for example, Matthews et al., “Positron emission tomography molecular imaging for drug development”, Br. J. Clin. Pharmacol., 73:2, 175-186).
In four of the volunteers, blood sample were taken at 30, 60, 120 and 180 minutes after drug administration. Blood samples were not taken from the fifth volunteer. At 60 minutes after drug administration, PET scans were initiated and these were stopped at 120 minutes after drug administration.
The experiment was carried out at dosages of 7.5 mg, 15 mg and 22.5 mg.

[1] = plasma concentrations after oral dosing to human volunteers; format: in vivo
Procedure: (+)-α-Dihydrotetrabenazine in amounts was administered by oral dosing to five human volunteers. In four of the volunteers, blood sample were taken at 30, 60, 120 and 180 minutes after drug administration. Blood samples were not taken from the fifth volunteer. At 60 minutes after drug administration, PET scans were initiated and these were stopped at 120 minutes after drug administration. The experiment was carried out at dosages of 7.5 mg, 15 mg and 22.5 mg.

[2] = solid form stability in slurry / polymorphism by XRPD; format: physicochemical
[3] = thermal gravimetric analysis (TGA) / thermal stability
Procedure: Differential scanning calorimetry (DSC) was carried out on the sample “as is” using a Mettler DSC1 instrument. The sample was weighed I an aluminium pan, covered with a pierced lid, and then crimped and analysed from 30-300° C. at 10° C./minute.
Thermal gravimetric analysis was performed on the sample “as is” using a Mettler 851^e TGA instrument. The sample was weighed in an alumina crucible and analysed from 30-300° C. at 10° C./minute.

T1 sequence (Q05940 whole entry): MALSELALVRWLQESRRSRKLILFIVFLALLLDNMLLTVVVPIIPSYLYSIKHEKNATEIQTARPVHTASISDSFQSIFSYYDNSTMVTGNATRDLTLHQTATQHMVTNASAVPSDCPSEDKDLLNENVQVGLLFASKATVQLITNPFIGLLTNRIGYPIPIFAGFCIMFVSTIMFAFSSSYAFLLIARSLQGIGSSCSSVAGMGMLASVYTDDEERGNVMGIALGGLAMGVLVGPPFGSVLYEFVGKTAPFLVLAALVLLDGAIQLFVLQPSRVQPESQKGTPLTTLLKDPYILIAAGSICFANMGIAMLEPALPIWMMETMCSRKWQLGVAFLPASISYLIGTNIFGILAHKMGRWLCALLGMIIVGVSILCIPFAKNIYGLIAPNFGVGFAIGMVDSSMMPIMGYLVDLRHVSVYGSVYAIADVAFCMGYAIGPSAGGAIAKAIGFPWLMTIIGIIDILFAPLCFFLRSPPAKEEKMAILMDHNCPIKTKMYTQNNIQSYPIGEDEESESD

SMILES: COc1cc2c(cc1OC)[C@H]1C[C@@H](O)[C@H](CC(C)C)CN1CC2 [(+)-α-dihydrotetrabenazine, (2R,3R,11bR)-3-isobutyl-9,10-dimethoxy-1,3,4,6,7,11b-hexahydro-2H-pyrido[2,1,a]isoquinolin-2-01]
- % VMAT2 blocking (VMAT2; heavier individuals, doses as low as 7.5 mg): at least 50%
- % VMAT2 blocking (VMAT2; subject 1 (112 kg), 7.5 mg oral, PET 60-120 minutes after administration): 54%
- % VMAT2 blocking (VMAT2; subject 1 (112 kg), 15 mg oral, PET 60-120 minutes after administration): 73%
- % VMAT2 blocking (VMAT2; subject 1 (112 kg), 22.5 mg oral, PET 60-120 minutes after administration): 75%
- % VMAT2 blocking (VMAT2; subject 2 (76 kg), 7.5 mg oral, PET 60-120 minutes after administration): 73%
- % VMAT2 blocking (VMAT2; subject 2 (76 kg), 15 mg oral, PET 60-120 minutes after administration): 83%
- % VMAT2 blocking (VMAT2; subject 2 (76 kg), 22.5 mg oral, PET 60-120 minutes after administration): 82%
- % VMAT2 blocking (VMAT2; subject 3 (129 kg), 7.5 mg oral, PET 60-120 minutes after administration): 62%
- % VMAT2 blocking (VMAT2; subject 3 (129 kg), 15 mg oral, PET 60-120 minutes after administration): 69%
- % VMAT2 blocking (VMAT2; subject 3 (129 kg), 22.5 mg oral, PET 60-120 minutes after administration): 74%
- % VMAT2 blocking (VMAT2; subject 4 (59 kg), 7.5 mg oral, PET 60-120 minutes after administration): 84%
- % VMAT2 blocking (VMAT2; subject 4 (59 kg), 15 mg oral, PET 60-120 minutes after administration): 89%
- % VMAT2 blocking (VMAT2; subject 5 (91 kg), 7.5 mg oral, PET 60-120 minutes after administration): 73%
- % VMAT2 blocking (VMAT2; subject 5 (91 kg), 15 mg oral, PET 60-120 minutes after administration): 79%
- % VMAT2 blocking (VMAT2; subject 5 (91 kg), 22.5 mg oral, PET 60-120 minutes after administration): 82%
- concentration at 1 h ([1]; human, plasma, subject 1 (112 kg), 7.5 mg oral): 0.94 ng/mL
- concentration at 1 h ([1]; human, plasma, subject 1 (112 kg), 22.5 mg oral): 18 ng/mL
- concentration at 2 h ([1]; human, plasma, subject 2 (76 kg), 7.5 mg oral): 14 ng/mL
- concentration at 0.5 h ([1]; human, plasma, subject 3 (129 kg), 15 mg oral, 0.5 h): 1.2 ng/mL
- concentration at 2 h ([1]; human, plasma, subject 3 (129 kg), 15 mg oral): 12 ng/mL
- plasma concentration of (+)-α-dihydrotetrabenazine ([1]; subject 1 (112 kg), 7.5 mg oral, 0.5 h, BLQ = below level of quantitation): BLQ

SMILES: COc1cc2c(cc1OC)[C@H]1C[C@@H](O)[C@H](CC(C)C)CN1CC2.O=C(O)CCC(=O)O [(+)-α-dihydrotetrabenazine succinate]
- polymorphism [2]: no evidence of polymorphism
- TGA weight loss ([3]; below 150° C.): No weight loss
- thermal stability ([3]; from DSC and TGA): good thermal stability
